Experimental data reported in ChEMBL document CHEMBL3507680, “University of Dundee, Gates Library screen for HepG2 cell viability”.

Assay: Human HepG2 cell viability assay in 384 well format
Assay type: toxicity, cell-based
Design: dose 125 nL, time 70.5 hour; cytotoxicity at 70.5 h: concentration not given beside the values
Conditions: HepG2 cells, read-out: Inhibition

| Structure (SMILES) | cytotoxicity at 70.5 h [%] |
| --- | --- |
| Cc1ccc(N2C[C@H]3OCC[C@H]3[C@H](C(=O)NC3CCCC3)C2)nn1 | -12.6 |
| O=C1[C@@H]2CCN(Cc3ccoc3)C[C@@H]2OCCN1c1cccnc1 | -13.5 |
| Cc1ccc(N2C[C@H]3OCC[C@H]3[C@H](C(=O)NCc3ccco3)C2)nn1 | -7.31 |
| COCCNC(=O)[C@@H]1CN(c2ncccn2)C[C@H]2OCC[C@H]21 | -2.54 |
| CCCNC(=O)c1cc(-c2cnc(N3CCCC3)nc2)cn1C | 3.66 |
| CCC(=O)N1CCC2(COCc3cnc(N4CCOCC4)nc32)C1 (centres undefined) | 1.55 |
| COCC(=O)N1CCC2(COCc3cnc(N4CCOCC4)nc32)C1 (centres undefined) | 6.48 |
| O=C(CC1CC1)N1CCC2(CC1)CN(c1ccsc1)C(=O)CO2 | -2.64 |
| CNc1ncc(CN(C)C(=O)c2cccc(CC3CCNCC3)c2)cn1 | 35 |
| COC[C@@H]1CCCN1C(=O)CCc1c(C)nn(C)c1C | -2.05 |
| CNC(=O)c1n[nH]c2c1C(c1cccc3nsnc13)CC(=O)N2 (centres undefined) | -3.59 |
| CCc1ncc(C(=O)N(CCOC)Cc2ccccc2F)cn1 | -2.26 |
| Cc1nc(N2CCCC2C(=O)NC(C)(C)CO)nc2ccccc12 (centres undefined) | -7.7 |
| Fc1ccc(CC2CCN(Cc3cscn3)CC2)cc1 | -14.2 |
| O=C1NCCCc2[nH]c(Cc3cccc(Cl)c3)nc21 | 0.226 |
| O=C(CCc1ccccc1F)N1CCCC(OCc2cccnc2)C1 (centres undefined) | -9.56 |
| COC(=O)c1cccc(-c2c[nH]c(C)n2)c1 | -7.21 |
| CSc1ncccc1C(=O)N(C)CCc1scnc1C | -8.88 |
| CC(C)c1nnc(N2C[C@@H]3CC[C@H](C2)N(Cc2ccccc2)C3)s1 | -4.82 |
| COc1cc(N(C)Cc2noc(CC(C)C)n2)ncn1 | 20.1 |
| Cc1cc2cccc(C(=O)N3CCOC(CCN(C)C)C3)c2o1 (centres undefined) | -17.3 |
| CN1CCNC(=O)C1CC(=O)NCCc1cnn(-c2ccccc2)c1 (centres undefined) | 19.9 |
| CN(Cc1ccccc1CN1CCCC1)C(=O)c1c(O)cccc1O | 7.79 |
| COCCN1CCN(C(=O)C(c2cccc(F)c2)N(C)C)CC1 (centres undefined) | 1.27 |
| Cc1nn(C)c2nc(N(Cc3cnn(C)c3)C3CCCCC3)sc12 | 7.12 |
| NCCO[C@H]1C[C@@H](O)C12CCN(Cc1c(F)cccc1F)CC2 | -7.05 |
| Cc1cnc(C)c(-c2cc(O)c3c(c2)CN(c2nccs2)CCO3)n1 | -5.12 |

| Structure (SMILES) | cytotoxicity at 70.5 h [%] |
| --- | --- |
| Cc1cnc(NC(C)Cc2cnccn2)nc1N(C)C (centres undefined) | -4.28 |
| COc1cccc(OCCn2c(C)c(C)oc2=O)c1 | 0.585 |
| O=C(c1ccoc1)N1CCc2ncnc(NCc3ccccn3)c2CC1 | 25.5 |
| CN(Cc1ccc(C2CC(=O)Nc3n[nH]cc32)o1)S(C)(=O)=O (centres undefined) | 9.86 |
| CCc1cc(NCCCN(C)C2CCCC2)ncn1 | -11.3 |
| NC(=O)CN1CCC(C(=O)NCc2ccc3nonc3c2)CC1 | -14.2 |
| Cc1ccc2[nH]c(C(=O)N3CCC4(CC3)C(=O)NCCN4C)nc2c1 | -6.83 |
| O=C(O)c1cn(CC2CCCN(c3cnc4ccccc4n3)C2)nn1 (centres undefined) | -3.54 |
| O=C(Nc1cnn(CC(=O)N2CCCCO2)c1)c1ccsc1 | -2.35 |
| CC(C)c1noc(C2CCCN2C(=O)Cc2cn3ccsc3n2)n1 (centres undefined) | -9.25 |
| CC(C)(CN1CCC(Cc2cccc(C(=O)O)c2)C1)N1CCOCC1 (centres undefined) | -9.68 |
| CCc1cc(NCCNC(=O)c2cccnc2)n2nc(C)c(C)c2n1 | 21 |
| CN(C(=O)COc1ccc(F)cc1)[C@@H]1CS(=O)(=O)C[C@H]1O | -0.138 |
| CCc1noc(CN(C)C(=O)C2COc3ccccc3C2)n1 (centres undefined) | -0.861 |
| CSc1ncccc1C(=O)N1CCC2(CC1)c1nc[nH]c1CCN2C | 7.45 |
| CCCC(CNc1cc(C(C)C)nc2ccnn12)N(C)C (centres undefined) | 39.1 |
| Cc1cc(N[C@H](CO)c2ccccc2)n2nc(C)cc2n1 | -1.18 |
| COc1ccc(CC(=O)N2CC[C@@]3(O)CCNC[C@H]3C2)c(OC)c1 | -7.58 |
| Cn1ccnc1SCCNC(=O)CC1CCc2ccccc21 (centres undefined) | -10.6 |
| Cc1ccc(C(C(=O)N2CCC(Cc3noc(C)n3)CC2)N(C)C)cc1 (centres undefined) | -8.55 |
| N[C@H]1CCCN(C(=O)c2cnc(COc3ccccc3)nc2O)C1 | -9.44 |
| CSCc1nc(CCNC(=O)C(N)c2c(C)n[nH]c2C)cs1 (centres undefined) | -3.99 |
| CCCN(Cc1cccnc1)C(=O)C1CCN(Cc2ccco2)CC1 | -2.7 |
| Cc1nc(CN2CCN(Cc3cc4n(n3)CCNC4)CC2)cs1 | 22.5 |
| CC(=O)C1(c2ccccc2)CCN(C(=O)c2ccc3nnnn3c2)CC1 | 2.77 |
| CSCCc1c(-c2ccccc2)ncn1CCNc1cccnc1 | -8.03 |
| COc1ccc(OC)c(C(=O)N2C[C@H]3CC[C@@H]2CN(C)C3)c1 | 20.2 |

| Structure (SMILES) | cytotoxicity at 70.5 h [%] |
| --- | --- |
| COc1cccc2c1OCC(CNC(=O)Cc1cnccn1)C2 (centres undefined) | -3.59 |
| NCCC1CN(c2nc(-c3ccccc3)nc3c2CCNC3)CCO1 (centres undefined) | 2.96 |
| Cc1c(CN2C[C@H](O)[C@@H](N3CCOCC3)C2)[nH]c2ccc(F)cc12 | 12.2 |
| Cc1cnc(N2CCCOC(CN3CCCCC3)C2)nc1 (centres undefined) | -5.72 |
| CSCCC(=O)N1CCC(c2nnc(CN(C)CCO)n2C)CC1 | -2.23 |
| OCCCN1CCc2onc(C(c3ccccc3)c3ccccc3)c2C1 | 6.85 |
| O=C1CCCN1CCN1CC=C(c2cnn(C3CCS(=O)(=O)C3)c2)CC1 (centres undefined) | -10.3 |
| CCc1nnc(CN(CC)C(=O)C2CC(=O)N(C3CCCC3)C2)o1 (centres undefined) | -10.6 |
| CCC(C(=O)NC1(COC)CCCC1)n1cccn1 (centres undefined) | 5.08 |
| COCCN1C[C@H]2CC[C@@H]1CN(Cc1cc(=O)c3cc(C)ccc3[nH]1)C2 | -7.09 |
| CCN(CC)c1ncccc1CNCc1ccc(-c2ccn[nH]2)s1 | -6.37 |
| CCn1cc2c(n1)CN(Cc1cnn(C)c1)CC2COCC1CC1 (centres undefined) | -11.6 |
| CCS(=O)(=O)N1CC[C@H]2C(=O)N(Cc3cccnc3)CCO[C@H]2C1 | -13.9 |
| CN(C)C(=O)[C@H]1C[C@@H]2CN(CCc3ccccc3)C[C@H]1O2 | -6.59 |
| O=C1[C@@H]2CCN(Cc3ccoc3)C[C@@H]2OCCN1Cc1cccc(F)c1 | -4.35 |
| CN(C)C(=O)NC1COC2(CCN(Cc3ccc(Cl)c(F)c3)CC2)C1 (centres undefined) | -8.77 |
| CO[C@@H]1CCN(Cc2nccs2)C[C@@H]1Cc1cccc(C)c1 | -3.84 |
| c1ccc(C[C@H]2CN(Cc3nccs3)CC[C@@H]2OCC2CC2)cc1 | -2.59 |
| O=C(c1ccco1)N1C[C@@H]2CCN(c3cccnc3)C[C@@H]2C1 | -11.6 |
| c1cnc(N2CCO[C@H]3CN(Cc4csnn4)C[C@H]32)nc1 | -11.7 |
| Cc1ccc(CN2CCn3c(C(=O)N(C)C)cnc3C2)cc1 | 2.94 |
| COc1ccc(CN2CCn3c(C(=O)N(C)C)cnc3C2)cc1 | -3.13 |
| CCOCCN1Cc2ncn(C)c2C(COCC2CCOCC2)C1 (centres undefined) | -7.05 |
| CN(C)C(=O)c1cnc2n1CCN(Cc1cccnc1)C2 | 4.75 |
| Cc1ccc(N2CCO[C@H]3CN(Cc4ccccn4)C[C@H]32)nn1 | -9.99 |
